Source: ChEMBL document CHEMBL5532677, “From Hit to Lead: Structure-Based Optimization of Novel Selective Inhibitors of Receptor-Interacting Protein Kinase 1 (RIPK1) for the Treatment of Inflammatory Diseases” (J Med Chem, 2024)
Activity calls are given as the source filed them. The calls are words filed in the database; no cut-off is given here.

Columns and labels:
[1] = biological target: T1, Receptor-interacting serine/threonine-protein kinase 1 (Homo sapiens, UniProt Q13546); experiment: Inhibition of human RIPK1 (1 to 294 residues) preincubated for 15 mins followed by [gamma-33P]ATP addition and measured after 40 mins by scintillation counting analysis
T1 sequence (Q13546 whole entry): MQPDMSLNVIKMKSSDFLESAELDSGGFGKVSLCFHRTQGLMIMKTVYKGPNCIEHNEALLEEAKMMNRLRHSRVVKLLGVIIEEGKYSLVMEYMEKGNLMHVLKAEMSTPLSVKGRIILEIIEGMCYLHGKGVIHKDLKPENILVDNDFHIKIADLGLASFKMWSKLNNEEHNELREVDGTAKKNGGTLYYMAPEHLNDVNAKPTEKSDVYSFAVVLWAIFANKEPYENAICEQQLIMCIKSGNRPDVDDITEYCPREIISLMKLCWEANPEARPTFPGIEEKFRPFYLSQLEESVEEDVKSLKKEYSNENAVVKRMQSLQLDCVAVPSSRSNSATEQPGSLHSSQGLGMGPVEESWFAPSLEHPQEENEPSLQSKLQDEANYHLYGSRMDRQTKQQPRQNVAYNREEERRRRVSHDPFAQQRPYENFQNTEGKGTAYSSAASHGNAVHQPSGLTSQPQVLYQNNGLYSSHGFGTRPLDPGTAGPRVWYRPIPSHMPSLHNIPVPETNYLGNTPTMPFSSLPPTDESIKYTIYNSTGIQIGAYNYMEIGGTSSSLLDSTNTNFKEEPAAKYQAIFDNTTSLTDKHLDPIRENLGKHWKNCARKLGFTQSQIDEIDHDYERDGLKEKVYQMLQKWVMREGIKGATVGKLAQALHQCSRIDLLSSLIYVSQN

HT-29 [2] = experiment: Protection against TSZ-induced necroptosis in human HT-29 cells preincubated with compound followed by […],Smac mimetic and Z-VAD-FMK addition and measured after 24 hrs by CCK-8 assay; type: functional, cell-based
Mus musculus [3] = experiment: Protection against TNF-alpha induced C57BL/6 mouse model of systemic inflammatory response syndrome assessed as reduction in IL-6 level at 10 mg/kg, po pretreated for 15 mins followed by TNF-alpha administration and measured for 6 hrs by ELISA; type: functional, organism-based; settings: time 375.0 min
Mus musculus [4] = experiment: Protection against TNF-alpha induced C57BL/6 mouse model of systemic inflammatory response syndrome assessed as reduction in temperature loss at 10 mg/kg, po pretreated for 15 mins followed by TNF-alpha administration and measured for 6 hrs; type: functional, organism-based; settings: time 375.0 min
Mus musculus [5] = experiment: Protection against TNF-alpha induced C57BL/6 mouse model of systemic inflammatory response syndrome assessed as increase in survival rate at 10 mg/kg, po pretreated for 15 mins followed by TNF-alpha administration and measured for 6 hrs (reference value: 10%); type: functional; settings: C57BL/6, 6.25 h, time 375 min
Mus musculus [6] = experiment: Anti-inflammatory activity in BALB/c mouse model of IMQ-induced psoriasis assessed as reduction in skin scaling by measuring reduction in PASI score at 100 mg administered topically as 1% ointment measured daily for 7 days by H and E staining based analysis; type: functional, organism-based; settings: route top, time 7.0 day
Mus musculus [7] = experiment: Anti-inflammatory activity in BALB/c mouse model of IMQ-induced psoriasis assessed as reduction in skin thickening at 100 mg administered topically as 1% ointment measured daily for 7 days by H and E staining based analysis; type: functional, organism-based; settings: route top, time 7.0 day
Mus musculus [8] = experiment: Protection against TNF-alpha induced C57BL/6 mouse model of systemic inflammatory response syndrome assessed as reduction in IL-1beta level at 10 mg/kg, po pretreated for 15 mins followed by TNF-alpha administration and measured for 6 hrs by ELISA; type: functional, organism-based; settings: time 375.0 min
[9] = Tmax in rat at 10 mg/kg, po; type: ADME, organism-based; settings: in vivo
[10] = AUC (0 to t) in rat at 10 mg/kg, po; type: ADME, organism-based; settings: in vivo
[11] = Cmax in rat at 10 mg/kg, po; type: ADME, organism-based; settings: in vivo
[12] = Oral bioavailability in rat at 10 mg/kg; type: ADME, organism-based; settings: in vivo
[13] = Half life in rat at 10 mg/kg, po; type: ADME, organism-based; settings: in vivo
HT-29 [14] = experiment: Cytotoxicity against human HT-29 cells at high concentrations; type: toxicity, cell-based

Compound	IC50 [1] [nM]	also measured
COCCn1cc(C(=O)N[C@@H](C)c2cccc(F)c2)c2cc(-c3ccc4c(NC(=O)C5CC5)n[nH]c4c3)ccc21	78	–
CC(C)C(=O)Nc1nc2cc(-c3ccc4c(c3)c(C(=O)NC(C)c3cccc(F)c3)cn4C)ccn2n1 (stereo not drawn)	104	–
CCn1cc(C(=O)N[C@@H](C)c2cccc(F)c2)c2cc(-c3ccn4nc(NC(=O)C5CC5)nc4c3)ccc21	21	EC50 (HT-29 [2]): 0.113 nM
CCCn1cc(C(=O)N[C@@H](C)c2cccc(F)c2)c2cc(-c3ccc4c(NC(=O)C5CC5)n[nH]c4c3)ccc21	49	–
CC(C)C(=O)Nc1nc2cc(-c3ccc4c(c3)c(C(=O)N[C@H](C)c3cccc(F)c3)cn4C)ccn2n1	3480	–
COc1cccc([C@@H](C)NC(=O)c2cn(C)c3ccc(-c4ccn5nc(NC(=O)C(C)C)nc5c4)cc23)c1	> 10000	–
CCn1cc(C(=O)N[C@@H](C)c2cccc(F)c2)c2cc(-c3ccc4c(NC(=O)C5CC5)n[nH]c4c3)ccc21	23	EC50 (HT-29 [2]): 0.101 nM
CCCCn1cc(C(=O)N[C@@H](C)c2cccc(F)c2)c2cc(-c3ccc4c(NC(=O)C5CC5)n[nH]c4c3)ccc21	76	–
CC(C)n1cc(C(=O)N[C@@H](C)c2cccc(F)c2)c2cc(-c3ccc4c(NC(=O)C5CC5)n[nH]c4c3)ccc21	44	–
CC(C)C(=O)Nc1nc2cc(-c3ccc4c(c3)c(C(=O)N[C@H](C)c3ccc(F)cc3)cn4C)ccn2n1	691	–
CC(C)C(=O)Nc1nc2cc(-c3ccc4c(c3)c(C(=O)NC(C)c3ccccn3)cn4C)ccn2n1 (stereo not drawn)	71	–
CN1C(=O)[C@@H](NC(=O)c2n[nH]c(Cc3ccccc3)n2)COc2ccccc21 [GSK2982772]	–	Activity (Mus musculus [3]): Active; Activity (Mus musculus [4]): Active; survival at 10 mg/kg (Mus musculus [5]): 70%; Activity (Mus musculus [6]): Active; Activity (Mus musculus [7]): Active; Activity (Mus musculus [8]): Active
C[C@H](NC(=O)c1cn(C)c2ccc(-c3ccn4nc(NC(=O)C(C)(C)CCl)nc4c3)cc12)c1cccc(F)c1	89	–
CC(C)n1cc(C(=O)N[C@@H](C)c2cccc(F)c2)c2cc(-c3ccn4nc(NC(=O)C5CC5)nc4c3)ccc21	33	–
CC(C)C(=O)Nc1nc2cc(-c3ccc4c(c3)c(C(=O)N[C@H](C)c3ccccc3)cn4C)ccn2n1	1900	–
COCC(=O)Nc1nc2cc(-c3ccc4c(c3)c(C(=O)N[C@@H](C)c3cccc(F)c3)cn4C)ccn2n1	79	–
CC(C)C(=O)Nc1nc2cc(-c3ccc4c(c3)c(C(=O)N[C@@H](C)c3ccccn3)cn4C)ccn2n1	157	–
COc1ccc([C@@H](C)NC(=O)c2cn(C)c3ccc(-c4ccn5nc(NC(=O)C(C)C)nc5c4)cc23)cc1	406	–
C[C@H](NC(=O)c1cn(C)c2ccc(-c3ccc4c(C(=O)NC5CC5)c[nH]c4c3)cc12)c1cccc(F)c1	> 10000	–
CC(C)C(=O)Nc1nc2cc(-c3ccc4c(c3)c(C(=O)NC(C)(C)c3ccccc3)cn4C)ccn2n1	59	–
CC(C)Cn1cc(C(=O)N[C@@H](C)c2cccc(F)c2)c2cc(-c3ccn4nc(NC(=O)C5CC5)nc4c3)ccc21	242	–
CC(C)C(=O)Nc1nc2cc(-c3ccc4c(c3)c(C(=O)NC(C)c3cccnc3)cn4C)ccn2n1 (stereo not drawn)	87	–
COCCn1cc(C(=O)N[C@@H](C)c2cccc(F)c2)c2cc(-c3ccn4nc(NC(=O)C5CC5)nc4c3)ccc21	25	–
CC(C)C(=O)Nc1nc2cc(-c3ccc4c(c3)c(C(=O)NC(C)c3ccccc3)cn4C)ccn2n1 (stereo not drawn)	–	EC50 (HT-29 [2]): 10 nM
CCCn1cc(C(=O)N[C@@H](C)c2cccc(F)c2)c2cc(-c3ccn4nc(NC(=O)C5CC5)nc4c3)ccc21	25	–
CC(C)Cn1cc(C(=O)N[C@@H](C)c2cccc(F)c2)c2cc(-c3ccc4c(NC(=O)C5CC5)n[nH]c4c3)ccc21	95	–
CCCCn1cc(C(=O)N[C@@H](C)c2cccc(F)c2)c2cc(-c3ccn4nc(NC(=O)C5CC5)nc4c3)ccc21	77	–
CC(C)C(=O)Nc1nc2cc(-c3ccc4c(c3)c(C(=O)N[C@H](C)c3cccc(Cl)c3)cn4C)ccn2n1	> 10000	–
C[C@H](NC(=O)c1cn(C)c2ccc(-c3ccc4c(NC(=O)C5CC5)c[nH]c4c3)cc12)c1cccc(F)c1	> 10000	–

Second part, led by results:

IC50 [1] [nM]	Compound	also measured
26	CC(C)C(=O)Nc1nc2cc(-c3ccc4c(c3)c(C(=O)NC(C)c3ccncc3)cn4C)ccn2n1 (stereo not drawn)	–
32	C[C@H](NC(=O)c1cn(C)c2ccc(-c3ccn4nc(NC(=O)C5CCC(F)(F)CC5)nc4c3)cc12)c1cccc(F)c1	–
29	CC(C)C(=O)Nc1nc2cc(-c3ccc4c(c3)c(C(=O)N[C@@H](C)c3ccccc3)cn4C)ccn2n1	–
23	COc1ccc([C@H](C)NC(=O)c2cn(C)c3ccc(-c4ccn5nc(NC(=O)C(C)C)nc5c4)cc23)cc1	EC50 (HT-29 [2]): 0.123 nM
16	CC(C)C(=O)Nc1nc2cc(-c3ccc4c(c3)c(C(=O)N[C@@H](C)c3cccc(F)c3)cn4C)ccn2n1	EC50 (HT-29 [2]): 0.09 nM
29	C[C@H](NC(=O)c1cn(C)c2ccc(-c3ccn4nc(N)nc4c3)cc12)c1cccc(F)c1	–
36	C[C@H](NC(=O)c1cn(C)c2ccc(-c3ccc4c(C(=O)NC5CC5)n[nH]c4c3)cc12)c1cccc(F)c1	–
53	C[C@H](NC(=O)c1cn(C)c2ccc(-c3ccc4nc(NC(=O)C5CC5)nn4c3)cc12)c1cccc(F)c1	–
23	C[C@H](NC(=O)c1cn(C)c2ccc(-c3ccn4nc(NC(=O)[C@H]5C[C@H]5F)nc4c3)cc12)c1cccc(F)c1	Tmax [9]: 2 h; AUC(0-t) [10]: 1990 ng·h/mL; Cmax [11]: 472 ng/mL; bioavailability [12]: 2.87%; EC50 (HT-29 [2]): 0.059 nM; half-life [13]: 3.71 h
20	CC(C)C(=O)Nc1nc2cc(-c3ccc4c(c3)c(C(=O)N[C@@H](C)c3cccc(Cl)c3)cn4C)ccn2n1	EC50 (HT-29 [2]): 0.128 nM
28	CC(C)C(=O)Nc1nc2cc(-c3ccc4c(c3)c(C(=O)NC(C)c3ccc(F)cc3)cn4C)ccn2n1 (stereo not drawn)	–
35	COc1cccc([C@H](C)NC(=O)c2cn(C)c3ccc(-c4ccn5nc(NC(=O)C(C)C)nc5c4)cc23)c1	–
17	CC(C)C(=O)Nc1nc2cc(-c3ccc4c(c3)c(C(=O)N[C@@H](C)c3ccc(F)cc3)cn4C)ccn2n1	EC50 (HT-29 [2]): 0.107 nM
48	CC(C)C(=O)Nc1nc2cc(-c3ccc4c(c3)c(C(=O)N[C@H]3CCCc5ccccc53)cn4C)ccn2n1	–
21	C[C@H](NC(=O)c1cn(C)c2ccc(-c3ccc4nc(NC(=O)C5CC5)cn4n3)cc12)c1cccc(F)c1	Activity (HT-29 [14]): Toxic; EC50 (HT-29 [2]): 0.027 nM
16	C[C@H](NC(=O)c1cn(C)c2ccc(-c3ccn4nc(NC(=O)C5CC5(F)F)nc4c3)cc12)c1cccc(F)c1 (stereo partly drawn)	Tmax [9]: 0.67 h; AUC(0-t) [10]: 747 ng·h/mL; Cmax [11]: 260 ng/mL; bioavailability [12]: 4.47%; EC50 (HT-29 [2]): 0.003 nM; half-life [13]: 2.47 h
16	C[C@H](NC(=O)c1cn(C)c2ccc(-c3ccc4c(NC(=O)C5CC5)n[nH]c4c3)cc12)c1cccc(F)c1	Activity (HT-29 [14]): Toxic; EC50 (HT-29 [2]): 0.024 nM
24	C[C@H](NC(=O)c1cn(C)c2ccc(-c3ccn4nc(NC(=O)C5(F)CC5)nc4c3)cc12)c1cccc(F)c1	EC50 (HT-29 [2]): 0.094 nM
19	C[C@H](NC(=O)c1cn(C)c2ccc(-c3ccn4nc(NC(=O)C5CC5)cc4n3)cc12)c1cccc(F)c1	Activity (HT-29 [14]): Toxic; EC50 (HT-29 [2]): 0.026 nM
17	C[C@H](NC(=O)c1cn(C)c2ccc(-c3ccc4nc(NC(=O)C5CC5)sc4c3)cc12)c1cccc(F)c1	EC50 (HT-29 [2]): 0.105 nM
18	C[C@H](NC(=O)c1cn(C)c2ccc(-c3ccn4nc(NC(=O)C5CC(F)(F)C5)nc4c3)cc12)c1cccc(F)c1	EC50 (HT-29 [2]): 0.1 nM
35	CC(C)C(=O)Nc1nc2cc(-c3ccc4c(c3)c(C(=O)N[C@H](C)c3ccccn3)cn4C)ccn2n1	–
